Experimental findings from article PMC10960833, “1,2,3-triazole and chiral Schiff base hybrids as potential anticancer agents: DFT, molecular docking and ADME studies” (Scientific Reports, 2024) are described below.

The subject of series [1] is A375 (skin) cancer cell lines. Put plainly: AlamarBlue cytotoxicity assay, A375. In kind it is cell-based. The settings on record: for Cytotoxicity (IC50) A375 / IC50: A375 cells, 24 h treatment, AlamarBlue, mean ± SD of three independent experiments; for IC50 / viability at 5 µg/mL / viability at 15 µg/mL / viability at 25 µg/mL / viability at 50 µg/mL / viability at 75 µg/mL / viability at 100 µg/mL: Homo sapiens; for IC50: A-375, 24 h; for viability at 5 µg/mL / viability at 15 µg/mL / viability at 25 µg/mL / viability at 50 µg/mL / viability at 75 µg/mL / viability at 100 µg/mL: A-375; for Selectivity index (SI) A375: ratio IC50 MRC5 / IC50 A375. As for the experimental part:
(§1) PC3, A375, and MRC5 cell lines were purchased from ATCC and were cultured in Dulbecco’s Modified Eagle Media (DMEM) supplemented with 10% Fetal Bovine Serum (FBS) (Highveld biological), 1% gentamycin and 1% penicillin/streptomycin (Sigma, USA).
(§2) The growth inhibitory effect and cytotoxicity of the compounds were tested in triplicate against two cancer cell lines (PC3 and A375) and one healthy cell line (MRC5), respectively using Alamar Blue assay.
(§3) PC3, A375, and MRC5 cell lines were cultured in 96 well tissue culture plates. […] Cells were treated for 24 h. […] Cell viability was measured using AlamarBlue and readings were obtained in terms of fluorescent values using a microplate reader (BioTek Synergy HT). Samples were exposed to an excitation wavelength of 530 nm and at the emission wavelength of 590 nm. Cell viability percentage was calculated using the formula below: Cellviability=absorbanceoftreatedcells-absorbanceofblank/absorbanceofuntreatedcells-absorbanceofblank×100%
Background: Resazurin is reduced to fluorescent resorufin, in cell work by metabolically active cells.

Series [2] is described as follows: AlamarBlue cytotoxicity assay, MRC5 normal cells. In kind it is cell-based. The conditions noted are these: human, MRC5 healthy lung cells, 24 h treatment, mean ± SD of three independent experiments. The procedure: (§4) PC3, A375, and MRC5 cell lines were purchased from ATCC and were cultured in Dulbecco’s Modified Eagle Media (DMEM) supplemented with 10% Fetal Bovine Serum (FBS) (Highveld biological), 1% gentamycin and 1% penicillin/streptomycin (Sigma, USA). Cells were maintained at 37 °C under 5% of carbon dioxide (CO2) and 95% relative humidity.
as §2
(§5) PC3, A375, and MRC5 cell lines were cultured in 96 well tissue culture plates. […] Cells were treated for 24 h. 10 µl of AlamarBlue (Thermo Fisher Scientific) was added to each well at 22 h after treatment and incubated for 2 h at 37 °C in the dark since AlamarBlue is light sensitive. Cell viability was measured using AlamarBlue and readings were obtained in terms of fluorescent values using a microplate reader (BioTek Synergy HT). Samples were exposed to an excitation wavelength of 530 nm and at the emission wavelength of 590 nm. Cell viability percentage was calculated using the formula below: Cellviability=absorbanceoftreatedcells-absorbanceofblank/absorbanceofuntreatedcells-absorbanceofblank×100%

In series [3] the test system is PC3 (prostate) cancer cell lines. Put plainly: AlamarBlue cytotoxicity assay, PC3. The settings on record: for IC50: Homo sapiens, PC-3; for Selectivity index (SI) PC3: ratio IC50 MRC5 / IC50 PC3. It is filed as cell-based. As for the experimental part: as §1, §2, §3
In series [4] the test system is MRC5 (healthy lung) cell lines. Put plainly: AlamarBlue cytotoxicity assay, MRC5 normal cells. It is filed as cell-based. The conditions noted are these: 24 h treatment, mean ± SD of three independent experiments. As for the experimental part: as §4, §2, §5
[5] abbreviates: PC3 cells, 24 h treatment, AlamarBlue, mean ± SD of three independent experiments.

For the molecule `O=Cc1ccccc1OCc1cn(-c2ccccc2)nn1` [Compound 1, 2-((1-phenyl-1H-1,2,3-triazol-4-yl)methoxy)benzaldehyde], the melting point lay in the range of 147 to 149 °C. In addition, in series [1], the “Cytotoxicity (IC50) A375” value stood at 40.37 ± 1.03 µg/mL, the IC50 was in the range of 36.1 to 40.4 µg/mL and the “Selectivity index (SI) A375” value was found to be 1.90. Besides, in series [1] (A375, 5 µg/mL), the viability at 5 µg/mL was 79%. The viability at 15 µg/mL in series [1] (A375, 15 µg/mL) was 69%. For the same molecule, the viability at 25 µg/mL in series [1] (A375, 25 µg/mL) was 55%. The viability at 50 µg/mL in series [1] (A375, 50 µg/mL) is 37%. The viability at 75 µg/mL in series [1] (A375, 75 µg/mL) is 24%. The viability at 100 µg/mL in series [1] (A375, 100 µg/mL) worked out at 18%. Also, the concentration for half-maximal inhibition (IC50) at 24 h in series [2] stood at 76.9 ± 1.87 µg/mL. Besides, the IC50 in series [3] (setting [5]) stood at 75 ± 1.82 µg/mL. Further, the viability at 5 µg/mL in series [3] (PC3, 5 µg/mL) turned out to be 95%. Besides, the viability at 15 µg/mL in series [3] (PC3, 15 µg/mL) turned out to be 89%. Also, the viability at 25 µg/mL in series [3] (PC3, 25 µg/mL) came to 80%. Further, the viability at 50 µg/mL in series [3] (PC3, 50 µg/mL) came to 63%. The viability at 75 µg/mL in series [3] (PC3, 75 µg/mL) was 47%. The viability at 100 µg/mL in series [3] (PC3, 100 µg/mL) came out at 38%. Further, in series [3], the “Selectivity index (SI) PC3” value was determined as 1.02.
As for `O=C(O)C(Cc1ccccc1)/N=C/c1ccccc1OCc1cn(-c2ccccc2)nn1` (stereo not drawn) [Compound 6, (e)-3-phenyl-2-((2-((1-phenyl-1H-1,2,3-triazol-4-yl)methoxy)benzylidene)amino)propanoic acid], the “Cell viability (%)” value in series [1] (A375, 5 µg/mL) stood at 68%; in series [1] (A375, 15 µg/mL), 57.67%; in series [1] (A375, 25 µg/mL), 45%; in series [1] (A375, 50 µg/mL), 27%; in series [1] (A375, 75 µg/mL), 16%; in series [1] (A375, 100 µg/mL), 8%. Also, the “Cell viability (%)” value in series [3] (PC3, 5 µg/mL) was determined as 79%; in series [3] (PC3, 15 µg/mL), 68%; in series [3] (PC3, 25 µg/mL), 60%; in series [3] (PC3, 50 µg/mL) it was 49%; in series [3] (PC3, 75 µg/mL) it was 26%; in series [3] (PC3, 100 µg/mL) it was 18%. Besides, the “Cytotoxicity (IC50) A375” value in series [1] was found to be 24.18 ± 0.57 µg/mL. Further, the “Selectivity index (SI) A375” value in series [1] is 3.85. Further, the “Cytotoxicity (IC50) MRC5” value in series [4] came out at 93.07 ± 2.42 µg/mL. For the same molecule, in series [3] (setting [5]), the “Cytotoxicity (IC50) PC3” value worked out at 45.00 ± 1.12 µg/mL. Besides, the “Selectivity index (SI) PC3” value in series [3] is recorded as 2.07.
`O=C([O-])[C@H](Cc1c[nH]c2ccccc12)/N=C/c1ccccc1OCc1cn(-c2ccccc2)nn1.[Na+]` [Compound 3, sodium (s,e)-3-(1H-indol-3-yl)-2-((2-((1-phenyl-1H-1,2,3-triazol-4-yl)methoxy)benzylidene)amino)propanoate] yielded a melting point of 196 to 198 °C. Also, in series [1], the IC50 was 21.9 ± 0.52 µg/mL and the “Selectivity index (SI) A375” value was found to be 3.95. Besides, in series [1] (A375, 5 µg/mL), the viability at 5 µg/mL turned out to be 68%. In addition, the viability at 15 µg/mL in series [1] (A375, 15 µg/mL) was found to be 57.7%. Also, in series [1] (A375, 25 µg/mL), the viability at 25 µg/mL was 42%. Also, the viability at 50 µg/mL in series [1] (A375, 50 µg/mL) came to 23%. In addition, the viability at 75 µg/mL in series [1] (A375, 75 µg/mL) was 14%. The viability at 100 µg/mL in series [1] (A375, 100 µg/mL) amounted to 9%. In addition, the IC50 at 24 h in series [2] was 86.4 ± 2.64 µg/mL. Besides, the IC50 in series [3] (setting [5]) was 40.5 ± 1.06 µg/mL. For the same molecule, in series [3] (PC3, 5 µg/mL), the viability at 5 µg/mL came to 77%. Besides, the viability at 15 µg/mL in series [3] (PC3, 15 µg/mL) came to 65.3%. Further, the viability at 25 µg/mL in series [3] (PC3, 25 µg/mL) worked out at 58%. For the same molecule, the viability at 50 µg/mL in series [3] (PC3, 50 µg/mL) came out at 44%. Further, in series [3] (PC3, 75 µg/mL), the viability at 75 µg/mL was determined as 22%. Moreover, the viability at 100 µg/mL in series [3] (PC3, 100 µg/mL) was found to be 16%. In addition, the “Selectivity index (SI) PC3” value in series [3] was 2.13.
`O=C([O-])[C@H](Cc1ccc([O-])cc1)/N=C/c1ccccc1OCc1cn(-c2ccccc2)nn1.[Na+].[Na+]` [Compound 4, sodium (s,e)-3-(4-oxidophenyl)-2-((2-((1-phenyl-1H-1,2,3-triazol-4-yl)methoxy)benzylidene)amino)propanoate] gave a melting point of 148 to 150 °C. Further, in series [1], the IC50 is 24.8 ± 0.61 µg/mL and the “Selectivity index (SI) A375” value is listed as 3.56. Also, the viability at 5 µg/mL in series [1] (A375, 5 µg/mL) turned out to be 68.7%. Moreover, the viability at 15 µg/mL in series [1] (A375, 15 µg/mL) was 59.7%. Also, the viability at 25 µg/mL in series [1] (A375, 25 µg/mL) was found to be 45%. In addition, the viability at 50 µg/mL in series [1] (A375, 50 µg/mL) is 25%. Also, in series [1] (A375, 75 µg/mL), the viability at 75 µg/mL was found to be 16%. In series [1] (A375, 100 µg/mL), the viability at 100 µg/mL is 11%. For the same molecule, the IC50 at 24 h in series [2] worked out at 88.4 ± 2.38 µg/mL. For the same molecule, in series [3] (setting [5]), the IC50 turned out to be 55.7 ± 1.28 µg/mL. Besides, in series [3], the “Activity for the proliferation of the PC3 cancer cell lines (in words)” value is “moderate activity” and the “Selectivity index (SI) PC3” value came out at 1.59. Also, the viability at 5 µg/mL in series [3] (PC3, 5 µg/mL) is 84%. Besides, the viability at 15 µg/mL in series [3] (PC3, 15 µg/mL) was 78%. The viability at 25 µg/mL in series [3] (PC3, 25 µg/mL) turned out to be 70%. In addition, the viability at 50 µg/mL in series [3] (PC3, 50 µg/mL) came out at 56%. Further, the viability at 75 µg/mL in series [3] (PC3, 75 µg/mL) worked out at 34%. Also, the viability at 100 µg/mL in series [3] (PC3, 100 µg/mL) was determined as 21.3%.
Turning to `O=C(O)CCC(/N=C/c1ccccc1OCc1cn(-c2ccccc2)nn1)C(=O)O` (stereo in doubt) [Compound 2, (s,e)-2-((2-((1-phenyl-1H-1,2,3-triazol-yl)methoxy)benzylidene)amino)pentanedioic acid], the melting point is 146 to 148 °C. In series [1], the “Cytotoxicity (IC50) A375” value was found to be 36.12 ± 0.87 µg/mL, the IC50 lay in the range of 36.1 to 40.4 µg/mL and the “Selectivity index (SI) A375” value was 2.36. Also, the viability at 5 µg/mL in series [1] (A375, 5 µg/mL) stood at 75.7%. For the same molecule, in series [1] (A375, 15 µg/mL), the viability at 15 µg/mL was 67%. Further, in series [1] (A375, 25 µg/mL), the viability at 25 µg/mL stood at 53.3%. Moreover, the viability at 50 µg/mL in series [1] (A375, 50 µg/mL) is 34%. For the same molecule, the viability at 75 µg/mL in series [1] (A375, 75 µg/mL) stood at 20.7%. In series [1] (A375, 100 µg/mL), the viability at 100 µg/mL amounted to 14%. In addition, in series [2], the IC50 at 24 h turned out to be 85.3 ± 2.27 µg/mL. Moreover, in series [3] (setting [5]), the IC50 was found to be 60.6 ± 1.42 µg/mL. Further, in series [3], the “Activity for the proliferation of the PC3 cancer cell lines (in words)” value is listed as “moderate activity” and the “Selectivity index (SI) PC3” value came out at 1.41. Further, the viability at 5 µg/mL in series [3] (PC3, 5 µg/mL) was determined as 90.3%. Further, the viability at 15 µg/mL in series [3] (PC3, 15 µg/mL) is 81%. Moreover, in series [3] (PC3, 25 µg/mL), the viability at 25 µg/mL was found to be 71%. Besides, in series [3] (PC3, 50 µg/mL), the viability at 50 µg/mL came out at 56%. In addition, the viability at 75 µg/mL in series [3] (PC3, 75 µg/mL) stood at 36%. In series [3] (PC3, 100 µg/mL), the viability at 100 µg/mL was 28%.

The term IC50 denotes the midpoint of a concentration-inhibition curve. Broadly, the viability is the share of living cells, or the viability signal relative to a control. The melting point is the temperature of the solid-liquid transition.
